{
  "source": "patent US20230390304A1",
  "about": "“Method and Composition for Treating Epilepsy” (Lipocine Inc., priority 2022, published 2023)",
  "experiment": "Solubility of 3α-OH-5β-pregnan-20-one in SBE-β-CD (cyclodextrin) solution",
  "type": "physicochemical",
  "description": "When utilizing sulfobutylether-β-cyclodextrin (SBE-3-CD) oral compositions including solubilized or semi solid 3α-OH-5β-pregnan-20-one, it may be challenging to load proper amounts of 3α-OH-5β-pregnan-20-one so as to deliver effective serum levels of 3α-OH-5β-pregnan-20-one due to limitations with respect to 3α-OH-5β-pregnan-20-one solubility in various cyclodextrin solutions including SBE-β-CD (e.g. only ˜6 mg/ml of 3α-OH-5β-pregnan-20-one solubility in 24% w/v non-encapsulated SBE-β-CD solution). The solubilized fraction of 3α-OH-5β-pregnan-20-one began to decline, as observed by precipitation, when 3α-OH-5β-pregnan-20-one concentration was above 8 mg/ml. The amount of 3α-OH-5β-pregnan-20-one in the cyclodextrin solution can only be enabled by about 0.6% w/w loading amount of the composition fill. Moreover, high cyclodextrin amounts required to solubilize 3α-OH-5β-pregnan-20-one also present safety concerns. In some aspects, the compositions and dosage forms of this invention can comprise higher 3α-OH-5β-pregnan-20-one loading amounts than ones formulated in non-encapsulated SBE-β-CD or any cyclodextrin solution composition.",
  "data": [
    {"smiles": "CC(=O)[C@H]1CC[C@H]2[C@@H]3CC[C@@H]4C[C@H](O)CC[C@]4(C)[C@H]3CC[C@]12C", "note": "[3α-OH-5β-pregnan-20-one]", "values": [
      {"measurement": "3α-OH-5β-pregnan-20-one concentration above which the solubilized fraction began to decline, as observed by precipitation", "setting": "cyclodextrin (SBE-β-CD) solution", "value": "above 8 mg/ml"},
      {"measurement": "loading amount of the composition fill enabled in the cyclodextrin solution", "setting": "cyclodextrin solution", "value": "about 0.6 % w/w"},
      {"measurement": "3α-OH-5β-pregnan-20-one solubility", "setting": "in 24% w/v non-encapsulated SBE-β-CD solution", "value": "~6000", "unit": "µg/mL"}
    ]}
  ]
}
